In experiment [1] the target is T1, Kappa-type opioid receptor (Homo sapiens, UniProt P41145). Kind of experiment: kappa opioid receptor activation potency – imaging, image-based, SAR follow-up (AID 2359). Type of experiment: functional.
Experiment [2] deals with T1, Kappa-type opioid receptor. Kind of experiment: kappa opioid receptor blockers, image-based, SAR follow-up (AID 2348). The class given is functional.
The target of experiment [3] is T2, Delta-type opioid receptor (Homo sapiens, UniProt P41143). Kind of experiment: delta opioid receptor blockers – image-based, SAR follow-up (AID 2357). The class given is functional.
T2 sequence (P41143 whole entry): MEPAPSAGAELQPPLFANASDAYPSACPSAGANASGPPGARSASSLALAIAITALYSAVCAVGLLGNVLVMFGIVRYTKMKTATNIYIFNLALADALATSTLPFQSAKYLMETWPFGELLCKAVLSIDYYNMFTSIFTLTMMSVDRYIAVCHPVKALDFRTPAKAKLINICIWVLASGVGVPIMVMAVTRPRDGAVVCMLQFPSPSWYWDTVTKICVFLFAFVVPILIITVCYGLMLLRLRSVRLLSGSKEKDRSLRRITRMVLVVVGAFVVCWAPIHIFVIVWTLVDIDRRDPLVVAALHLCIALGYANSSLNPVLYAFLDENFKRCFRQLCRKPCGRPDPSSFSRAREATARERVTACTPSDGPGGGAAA
The target of experiment [4] is T2, Delta-type opioid receptor. Kind of experiment: DOR agonists, SAR follow-up, image-based (AID 2370). The class given is functional.
Experiment [5] concerns the target T3, Mu-type opioid receptor (Homo sapiens, UniProt P35372). Kind of experiment: mu opioid receptor activators, image-based, SAR follow-up (AID 2352). Type of experiment: functional.
Experiment [6] addresses T1, Kappa-type opioid receptor. Description: SAR analysis of small molecule agonists of the kappa opioid receptor via a luminescent beta-arrestin assay. [Related pubchem assays (depositor defined):AID1777, AID1786, AID1966, AID2133, AID2136, AID2348, AID2352, AID2357, AID2359, AID2370, AID2420, AID2478, AID2491, AID2492, AID2493, AID2497, AID2498, AID2500, AID449737, AID488822, AID488842]. Type of experiment: functional.

Experiment [7] deals with T3, Mu-type opioid receptor. Description: mu opioid receptor blockers – image-based, SAR follow-up (AID 2420).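 Also: compounds added before stimulation of receptor with agonist DAMGO.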 Type of experiment: functional.
The nature of experiment [8]: fluconazole-exposed Candida albicans growth modulators – fluorescence, retest, confirmation (AID 2467). The class given is functional, cell-based.
The nature of experiment [9]: NIH-3T3 fibroblast cytotoxicity, dose response, cytotoxicity control, cell-based, fluorescence, Alamar Blue, secondary assay (AID 2327).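 Also: NIH-3T3 mouse fibroblasts cultured with fluconazole at 8 µg/mL.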 Type of experiment: functional. Background: The colour change of resazurin is a common sign of viable cells or microbes.
Experiment [10] deals with T4, Heat shock factor protein 1 (Mus musculus, UniProt P38532).
T4 sequence (P38532 whole entry): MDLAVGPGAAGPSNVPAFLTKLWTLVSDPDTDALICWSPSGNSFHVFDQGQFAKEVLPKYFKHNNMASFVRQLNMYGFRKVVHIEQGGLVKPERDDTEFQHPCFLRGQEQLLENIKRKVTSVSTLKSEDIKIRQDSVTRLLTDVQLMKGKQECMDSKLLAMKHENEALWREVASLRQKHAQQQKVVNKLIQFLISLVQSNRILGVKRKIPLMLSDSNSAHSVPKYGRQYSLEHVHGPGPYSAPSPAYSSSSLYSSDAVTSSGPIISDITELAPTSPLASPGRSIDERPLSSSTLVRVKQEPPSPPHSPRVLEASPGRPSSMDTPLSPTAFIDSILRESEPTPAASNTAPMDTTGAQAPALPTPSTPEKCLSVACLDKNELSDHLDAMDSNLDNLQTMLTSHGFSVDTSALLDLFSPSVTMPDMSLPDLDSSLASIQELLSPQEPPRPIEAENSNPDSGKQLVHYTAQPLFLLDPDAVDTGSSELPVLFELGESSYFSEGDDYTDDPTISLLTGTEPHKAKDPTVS
Kind of experiment: decrease of HSF1-responsive luciferase luminescence – cell-based, NIH3T3, dose retest, confirmation (AID 2382).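 Also: NIH3T3 fibroblasts with HSF1-driven luciferase reporter stressed by proteasome inhibitor MG132; luminescence from HSF1-driven luciferase expression after 8 hours of MG132 stress.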 Type of experiment: functional.

In experiment [11] the target is T5, RNA-binding protein pos-1 (Caenorhabditis elegans, UniProt G5EF15).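 Also: purified POS-1 fused to maltose binding protein made in E. coli; potency of compounds blocking POS-1 binding to fluorescent RNA.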
T5 sequence (G5EF15 whole entry): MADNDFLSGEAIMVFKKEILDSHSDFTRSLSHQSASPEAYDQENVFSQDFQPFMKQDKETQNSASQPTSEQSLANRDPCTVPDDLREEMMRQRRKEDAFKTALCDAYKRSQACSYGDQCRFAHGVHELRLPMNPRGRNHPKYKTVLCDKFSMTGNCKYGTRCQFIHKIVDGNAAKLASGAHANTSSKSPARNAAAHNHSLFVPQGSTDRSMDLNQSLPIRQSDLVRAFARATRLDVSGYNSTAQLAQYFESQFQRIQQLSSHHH
Description: disruptors of C. elegans POS-1 RNA interaction – biochemical, fluorescence polarization, dose response (AID 1964). (Polarisation of emitted light reports the rotation of a fluorescent probe.)

A short description of experiment [12]: Counterscreen for AddAB inhibitors: absorbance-based bacterial cell-based high throughput dose response assay for inhibitors of bacterial viability. [Related pubchem assays (depositor defined):AID435030, AID449728, AID449731, AID488942, AID488955, AID488956]. The class given is functional. Background: The purpose of a counterscreen is to sort out artefacts and off-target activity.

A further experiment deals with INS1. Kind of experiment: INS-1E survival protection against cytokine death – cell-based, luminescence, retest, dose response (AID 449756).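 Also: cell death triggered by IL-1 beta plus TNF-alpha plus IFN-gamma mixture; protective hits raise ATP signal compared with cytokine alone wells.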 Type of experiment: functional. To be noted: Rattus norvegicus.
A further experiment addresses Exodeoxyribonuclease V (Escherichia coli (strain K12), UniProt P04993+P07648+P08394). Description: RecBCD inhibition via phage-restricted bacterial growth – absorbance, V66 E. coli, mutant T4 phage, counter-screen for AddAB inhibitor project, dose response (AID 492957). Type of experiment: functional, cell-based, Escherichia coli str. K-12 substr. MG1655.
Experiment [13] is described as follows: alpha-synuclein stem-loop luciferase translation blockers – H4 neuroglioma cells, luminescence, confirmation (AID 1988). The class given is functional, cell-based.
A short description of experiment [14]: luciferase reporter signal suppression in cells – H4 neuroglioma cells, luminescence, dose response (AID 1990). Type of experiment: functional, cell-based.
Experiment [15] is described as follows: Luminescence Cell-Based Dose Response HTS to Identify Inhibitors of 5'UTR Stem-Loop Driven Prion Protein mRNA Translation in H4 Neuroglioblastoma Cells. [Related pubchem assays: 1827 (Project Summary), 1813 (Primary HTS)]. The class given is functional.
Experiment [16] addresses T6, Zinc finger protein mex-5 (Caenorhabditis elegans, UniProt Q9XUB2).
T6 sequence (Q9XUB2 whole entry): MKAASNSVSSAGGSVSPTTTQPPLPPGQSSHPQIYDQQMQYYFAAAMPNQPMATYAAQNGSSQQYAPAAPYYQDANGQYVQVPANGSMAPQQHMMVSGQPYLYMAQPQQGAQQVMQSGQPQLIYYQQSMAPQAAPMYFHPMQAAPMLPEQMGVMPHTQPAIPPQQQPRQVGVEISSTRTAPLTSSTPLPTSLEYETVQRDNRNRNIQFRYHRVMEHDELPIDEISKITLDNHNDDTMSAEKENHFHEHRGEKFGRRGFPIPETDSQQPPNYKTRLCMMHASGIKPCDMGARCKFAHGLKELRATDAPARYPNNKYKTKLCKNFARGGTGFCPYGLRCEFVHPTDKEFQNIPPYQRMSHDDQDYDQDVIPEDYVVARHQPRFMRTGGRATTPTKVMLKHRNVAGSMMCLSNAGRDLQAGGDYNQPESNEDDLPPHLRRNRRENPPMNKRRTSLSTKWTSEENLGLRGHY
Kind of experiment: potency of MEX-5 RNA-binding blockers – biochemical, C. elegans, fluorescence polarization, dose response (AID 1960).

The target in experiment [17] is T1, Kappa-type opioid receptor. Description: kappa opioid receptor blockade potency – cell-based, luminescence, set 2, SAR follow-up (AID 2495). Type of experiment: functional.
The target of experiment [18] is T2, Delta-type opioid receptor. Description: SAR Analysis of Agonists of the DOR Receptor using an Image-Based Assay - Set 2. [Related pubchem assays (depositor defined):AID1777, AID1785, AID1786, AID1966, AID2133, AID2136, AID2284, AID2285, AID2370]. The class given is functional.
In experiment [19] the target is T3, Mu-type opioid receptor. Kind of experiment: SAR Analysis of Antagonists of the MOR Receptor using an Image-Based Assay - Set 2. [Related pubchem assays (depositor defined):AID1777, AID1785, AID1786, AID1966, AID2133, AID2136, AID2284, AID2285, AID2420]. Type of experiment: functional.
For experiment [20], the target named is T3, Mu-type opioid receptor. Kind of experiment: SAR Analysis of Agonists of the MOR Receptor using an Image-Based Assay - Set 2. [Related pubchem assays (depositor defined):AID1777, AID1785, AID1786, AID1966, AID2133, AID2136, AID2284, AID2285, AID2352]. Type of experiment: functional.
Experiment [21] deals with T1, Kappa-type opioid receptor. Kind of experiment: SAR analysis of small molecule agonists of the kappa opioid receptor via a luminescent beta-arrestin assay - Set 2. [Related pubchem assays (depositor defined):AID1777, AID1785, AID1786, AID1966, AID2133, AID2136, AID2284, AID449737]. Type of experiment: functional.
The target in experiment [22] is T2, Delta-type opioid receptor. Kind of experiment: SAR Analysis of Antagonists of the DOR Receptor using an Image-Based Assay - Set 2. [Related pubchem assays (depositor defined):AID1777, AID1785, AID1786, AID1966, AID2133, AID2136, AID2284, AID2285, AID2357]. Type of experiment: functional.
Experiment [23] deals with T1, Kappa-type opioid receptor. Kind of experiment: SAR analysis of Antagonists of the Kappa Opioid Receptor (KOR) using an Image-Based Assay - Set 2. [Related pubchem assays (depositor defined):AID1777, AID1785, AID1786, AID1966, AID2133, AID2136, AID2284, AID2285, AID2348]. Type of experiment: functional.
For experiment [24], the target named is T1, Kappa-type opioid receptor. Description: SAR analysis of Agonists of the Kappa Opioid Receptor (KOR) using an Image-Based Assay - Set 2. [Related pubchem assays (depositor defined):AID1777, AID1786, AID1966, AID2133, AID2136, AID2284, AID2285, AID2359]. Type of experiment: functional.

Activity calls are given as the source filed them. Some results are limits rather than exact numbers.

T1 sequence (P41145 whole entry): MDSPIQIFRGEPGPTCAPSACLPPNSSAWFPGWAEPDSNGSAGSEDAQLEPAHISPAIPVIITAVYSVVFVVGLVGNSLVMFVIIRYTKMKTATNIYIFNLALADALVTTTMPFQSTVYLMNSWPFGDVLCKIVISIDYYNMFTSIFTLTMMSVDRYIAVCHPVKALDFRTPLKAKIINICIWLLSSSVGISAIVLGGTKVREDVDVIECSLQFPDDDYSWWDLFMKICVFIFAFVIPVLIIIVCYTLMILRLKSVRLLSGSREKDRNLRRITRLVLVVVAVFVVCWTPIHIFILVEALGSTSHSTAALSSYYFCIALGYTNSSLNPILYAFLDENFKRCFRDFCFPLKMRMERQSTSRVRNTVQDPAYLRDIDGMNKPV
T3 sequence (P35372 whole entry): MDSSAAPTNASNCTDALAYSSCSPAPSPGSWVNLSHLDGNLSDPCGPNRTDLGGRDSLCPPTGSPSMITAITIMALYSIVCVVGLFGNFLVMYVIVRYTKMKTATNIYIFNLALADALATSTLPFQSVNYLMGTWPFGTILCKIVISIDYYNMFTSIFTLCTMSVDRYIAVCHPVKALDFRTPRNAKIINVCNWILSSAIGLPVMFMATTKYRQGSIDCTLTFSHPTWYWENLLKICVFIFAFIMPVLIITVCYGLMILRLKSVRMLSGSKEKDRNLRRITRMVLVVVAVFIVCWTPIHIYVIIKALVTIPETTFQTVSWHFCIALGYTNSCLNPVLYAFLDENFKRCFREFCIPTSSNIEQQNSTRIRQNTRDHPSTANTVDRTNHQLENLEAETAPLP
Sequence of Exodeoxyribonuclease V (P04993 whole entry): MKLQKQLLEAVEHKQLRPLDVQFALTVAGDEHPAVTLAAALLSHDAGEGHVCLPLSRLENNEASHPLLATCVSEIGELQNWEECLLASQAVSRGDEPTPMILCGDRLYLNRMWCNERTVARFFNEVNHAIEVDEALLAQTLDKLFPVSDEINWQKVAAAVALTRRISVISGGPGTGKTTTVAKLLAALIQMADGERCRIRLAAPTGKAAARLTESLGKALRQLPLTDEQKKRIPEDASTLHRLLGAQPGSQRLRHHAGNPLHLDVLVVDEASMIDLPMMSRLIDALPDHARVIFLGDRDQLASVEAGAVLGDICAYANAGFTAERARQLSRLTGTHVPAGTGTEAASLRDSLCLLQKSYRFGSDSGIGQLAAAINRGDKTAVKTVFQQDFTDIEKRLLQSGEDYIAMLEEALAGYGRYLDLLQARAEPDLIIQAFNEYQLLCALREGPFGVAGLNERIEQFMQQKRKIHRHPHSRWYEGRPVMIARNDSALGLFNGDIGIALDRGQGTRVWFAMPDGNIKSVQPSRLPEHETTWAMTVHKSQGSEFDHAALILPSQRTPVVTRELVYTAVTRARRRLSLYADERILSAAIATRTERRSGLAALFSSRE
Sequence of Exodeoxyribonuclease V (P07648 whole entry): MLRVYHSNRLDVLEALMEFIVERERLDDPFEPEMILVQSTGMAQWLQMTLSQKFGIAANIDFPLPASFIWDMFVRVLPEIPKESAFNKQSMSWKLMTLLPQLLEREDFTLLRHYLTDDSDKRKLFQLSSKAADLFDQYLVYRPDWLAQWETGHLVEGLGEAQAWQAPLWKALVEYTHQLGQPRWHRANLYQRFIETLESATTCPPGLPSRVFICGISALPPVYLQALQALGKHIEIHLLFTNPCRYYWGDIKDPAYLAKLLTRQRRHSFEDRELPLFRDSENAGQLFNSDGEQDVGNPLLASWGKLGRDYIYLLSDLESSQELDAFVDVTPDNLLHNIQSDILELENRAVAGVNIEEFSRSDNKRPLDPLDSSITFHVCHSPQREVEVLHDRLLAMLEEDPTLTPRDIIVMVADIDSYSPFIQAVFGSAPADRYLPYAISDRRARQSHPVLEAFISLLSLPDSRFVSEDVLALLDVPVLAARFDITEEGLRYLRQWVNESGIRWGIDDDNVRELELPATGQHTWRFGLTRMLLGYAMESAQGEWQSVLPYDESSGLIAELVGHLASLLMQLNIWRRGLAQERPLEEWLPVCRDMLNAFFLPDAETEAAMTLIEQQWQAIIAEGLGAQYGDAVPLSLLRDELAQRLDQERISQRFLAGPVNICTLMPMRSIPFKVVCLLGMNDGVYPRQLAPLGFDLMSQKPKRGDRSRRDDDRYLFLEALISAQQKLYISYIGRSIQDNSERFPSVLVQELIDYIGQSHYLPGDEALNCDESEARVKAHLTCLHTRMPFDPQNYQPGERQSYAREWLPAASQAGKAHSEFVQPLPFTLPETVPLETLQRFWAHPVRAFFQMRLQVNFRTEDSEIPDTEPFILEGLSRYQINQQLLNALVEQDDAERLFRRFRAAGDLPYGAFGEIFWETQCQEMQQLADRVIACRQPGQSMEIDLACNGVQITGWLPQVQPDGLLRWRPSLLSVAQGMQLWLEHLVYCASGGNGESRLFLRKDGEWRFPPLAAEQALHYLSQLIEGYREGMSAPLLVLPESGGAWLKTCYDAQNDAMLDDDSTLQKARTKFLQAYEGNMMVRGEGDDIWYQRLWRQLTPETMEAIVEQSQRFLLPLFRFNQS
Sequence of Exodeoxyribonuclease V (P08394 whole entry): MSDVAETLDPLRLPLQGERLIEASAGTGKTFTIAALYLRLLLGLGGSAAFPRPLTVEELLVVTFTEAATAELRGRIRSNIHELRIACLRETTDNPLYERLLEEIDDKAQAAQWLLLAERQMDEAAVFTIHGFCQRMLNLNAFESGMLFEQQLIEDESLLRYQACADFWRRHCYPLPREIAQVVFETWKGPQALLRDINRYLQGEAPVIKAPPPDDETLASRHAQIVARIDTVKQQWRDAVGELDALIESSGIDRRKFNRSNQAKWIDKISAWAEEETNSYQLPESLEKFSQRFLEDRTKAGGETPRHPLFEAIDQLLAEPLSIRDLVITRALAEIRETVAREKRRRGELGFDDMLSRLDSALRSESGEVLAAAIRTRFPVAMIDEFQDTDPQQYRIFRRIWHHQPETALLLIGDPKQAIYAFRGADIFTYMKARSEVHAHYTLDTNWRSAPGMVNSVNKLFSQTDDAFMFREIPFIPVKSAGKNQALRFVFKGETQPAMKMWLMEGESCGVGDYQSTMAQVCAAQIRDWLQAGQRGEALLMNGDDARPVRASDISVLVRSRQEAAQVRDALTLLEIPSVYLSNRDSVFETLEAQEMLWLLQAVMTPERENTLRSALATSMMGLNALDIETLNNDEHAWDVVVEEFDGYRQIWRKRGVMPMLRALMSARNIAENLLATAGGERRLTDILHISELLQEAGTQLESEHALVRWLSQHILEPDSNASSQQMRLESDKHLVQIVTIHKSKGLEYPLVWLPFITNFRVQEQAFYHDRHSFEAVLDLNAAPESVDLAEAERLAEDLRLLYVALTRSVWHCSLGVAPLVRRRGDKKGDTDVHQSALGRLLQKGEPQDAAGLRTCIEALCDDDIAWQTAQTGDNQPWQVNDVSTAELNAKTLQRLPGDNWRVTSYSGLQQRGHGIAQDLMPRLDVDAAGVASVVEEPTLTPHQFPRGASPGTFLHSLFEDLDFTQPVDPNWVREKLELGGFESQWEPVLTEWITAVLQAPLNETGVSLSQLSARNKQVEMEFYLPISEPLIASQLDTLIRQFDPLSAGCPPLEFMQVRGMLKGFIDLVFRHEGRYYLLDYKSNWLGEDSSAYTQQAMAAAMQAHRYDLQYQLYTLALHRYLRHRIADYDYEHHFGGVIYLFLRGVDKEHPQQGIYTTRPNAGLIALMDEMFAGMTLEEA

Take `O=C(CSc1nnc(-c2ccccn2)n1Cc1ccco1)c1ccc(Cl)cc1`: the EC50 in experiment [1] is 7.66 µM (active); in experiment [4], > 32 µM (inactive); at Mu-type opioid receptor [5], > 32 µM (inactive); in experiment [6], > 10 µM (inactive). Further, the IC50 (in experiment [2]; in experiment [3]; at Mu-type opioid receptor [7]) was > 32 µM (inactive) throughout.

`CCCNC(=O)c1ccc2c(O)c(O)c(-c3cccc(Br)c3)nc2c1`: the half-maximal effective concentration (EC50) in experiment [8] is 2.09 µM (active); in experiment [9], 15.6 µM (active); in experiment [10] it was > 195 µM (not active); in experiment [11], 1.6 µM (active); in [13] it was 3.4 µM (active); in [14], 3.04 µM (active). In addition, the EC50 in [15] was 4.83 µM (active); in experiment [16], 2.73 µM (active). For the same molecule, the IC50 (in experiment [12]; at Exodeoxyribonuclease V) was > 119 µM (inactive) each time. In addition, the half-maximal activity concentration (AC50) with INS1 is 5.4 µM (active).

In the case of `Cc1cc(C)c(S(=O)(=O)NCc2ccc(C(=O)NCCN3Cc4ccccc4C3)cc2)c(C)c1`, the IC50 is > 20 µM (inactive) in experiment [17], > 32 µM (inactive) on Mu-type opioid receptor [19], 13.9 µM (inactive) in [22] and > 32 µM (inactive) in experiment [23]. In addition, the EC50 in [18] is > 32 µM (inactive); on Mu-type opioid receptor [20], > 32 µM (inactive); in experiment [21] it was 4.97 µM (active); in experiment [24], > 32 µM (inactive).

A word on the EC50: it is the concentration that produces a half-maximal response. Usually IC50 stands for the midpoint of a concentration-inhibition curve. Broadly, the AC50 is the concentration giving half of the maximal activity seen.

Values taken from ChEMBL document CHEMBL1201862, “PubChem BioAssay data set” (2004).
